Earlier results on three molecules are cited in patent US20020146463A1, “Health promoting compositions” (priority 2000, published 2002).

The conditions of data set [1]: 500 patients with skin conditions, 180-300 mg beta carotene/day for 10 years.
The conditions of data set [2]: high versus low levels of folic acid in diet.
For data set [3] the following is noted: three recent trials.

Take `CC1=C(/C=C/C(C)=C/C=C/C(C)=C/C=C/C=C(C)/C=C/C=C(C)/C=C/C2=C(C)CCCC2(C)C)C(C)(C)CCC1` [beta carotene]: in data set [1], the adverse effects entry was “without report of adverse effects”.
For the molecule `Nc1nc2ncc(CNc3ccc(C(=O)N[C@@H](CCC(=O)O)C(=O)O)cc3)nc2c(=O)[nH]1` [folic acid], the “less likely to suffer a fatal heart attack” value in data set [2] is listed as 69%.
Take vitamin E: the “reduction of the risk of heart attacks” value in data set [3] was “more than half”.
